In ChEMBL document CHEMBL4229535, “Design, synthesis and evaluation of oxime-functionalized nitrofuranylamides as novel antitubercular agents” (2018) one finds MIC90 data, which are given here for 13 molecules.

Converted amounts (≈) assume the structure as drawn.

This test deals with Mycobacterium tuberculosis. The test is described as follows: Antimycobacterial activity against Mycobacterium tuberculosis H37Rv ATCC 27294 after 7 days by microplate alamar blue assay. In kind it is functional. The conditions noted are these: H37Rv ATCC 27294, 168 h. In general terms: Resazurin is reduced to fluorescent resorufin, in cell work by metabolically active cells.
For orientation: MIC90 means the lowest concentration that inhibits either 90% of growth or 90% of the strains tested, depending on the study. High values mean lower susceptibility, low ones higher susceptibility. Regarding `O=C(c1ccc([N+](=O)[O-])o1)N1CCc2ccccc21`, the MIC90 is 0.482 µg/mL (≈ 1.87 µM).

Consider `O=C(c1ccc([N+](=O)[O-])o1)N1CC/C(=N\OCc2ccccc2)C1`, for which the MIC90 was 0.291 µg/mL (≈ 0.884 µM). As for `O=C(c1ccc([N+](=O)[O-])o1)N1CCC(=NOCc2ccc(C(F)(F)F)cc2)CC1`, the MIC90 was more than 32 µg/mL.

As to `CON=C1CCN(C(=O)c2ccc([N+](=O)[O-])o2)CC1`, the MIC90 stood at 1.93 µg/mL (≈ 7.23 µM). With `O=C(c1ccc([N+](=O)[O-])o1)N1CCC(=NOCc2ccc([N+](=O)[O-])cc2)CC1` the figure was more than 32 µg/mL; with `CCON=C1CCN(C(=O)c2ccc([N+](=O)[O-])o2)CC1`, 14.1 µg/mL (≈ 50.3 µM). For the molecule `O=C(c1ccc([N+](=O)[O-])o1)N1CCC(=NOCc2ccccc2)CC1`, the MIC90 is 0.158 µg/mL (≈ 0.46 µM). Compared with the last molecule, the MIC90 is about 89-fold lower. In turn, `O=C(c1ccc([N+](=O)[O-])o1)N1CCC(=NOCc2ccc(OC(F)(F)F)cc2)CC1` returned an MIC90 of more than 32 µg/mL. With `CO/N=C1\CCN(C(=O)c2ccc([N+](=O)[O-])o2)C1` the figure was 1.83 µg/mL (≈ 7.22 µM); with `CCO/N=C1\CCN(C(=O)c2ccc([N+](=O)[O-])o2)C1`, more than 32 µg/mL.

Turning to `O=C(c1ccc([N+](=O)[O-])o1)N1CCC(=NOCc2ccc(F)cc2)CC1`, the MIC90 was 5.88 µg/mL (≈ 16.3 µM). The molecule `NNC(=O)c1ccncc1` [ISONIAZID] displayed an MIC90 of 0.035 µg/mL (≈ 0.255 µM). Under `CO[C@H]1/C=C/O[C@@]2(C)Oc3c(C)c(O)c4c(O)c(c(/C=N/N5CCN(C)CC5)c(O)c4c3C2=O)NC(=O)/C(C)=C\C=C\[C@H](C)[C@H](O)[C@@H](C)[C@@H](O)[C@@H](C)[C@H](OC(C)=O)[C@@H]1C` [RIFAMPIN] stands 0.059 µg/mL (≈ 0.0717 µM).
